Data published in patent US20060159732A1, “Antioxidant wound dressing materials” (priority 2003, published 2006).

What was measured:
[1] = test system: Pseudomonas aeruginosa (ATCC 27853 and various PSI strains); assay: Zone of inhibition test (Procedure 2) on Pseudomonas aeruginosa; type: cell-based; details: DSA plates, 37° C., every 24 hours over the test period (72 hours)
Method: (§1) Six 2 cm×2 cm squares of each sample are cut out in sterile conditions. On day one of the experiment, cultures of both Pseudomonas aeruginosa (ATCC 27853 and various PSI strains) and Staphylococcus aureus (provided by the Dept of Clinical Microbiology and Pathology) are incubated aerobically at 37° C. for 24 hours on Diagnostic Sensitivity Agar (DSA). After 24 hours test samples are each placed on a DSA plate and immediately wetted with 0.5 mls of a buffer solution. Three squares of sample are placed on plates inoculated with Pseudomonas aeruginosa and three are placed on plates inoculated with Staphylococcus aureus. The plates are then incubated at 37° C. for 24 hours. The zone of inhibited growth around the sample is then measured using calipers, and the test sample is placed on a new inoculated DSA plate. A swab test is carried out on the area beneath the sample to determine if the sample is bacteriostatic if not bactericidal by smearing the swab on a DSA plate and incubating it for 24 hours and then examining the growth.

Staphylococcus aureus = assay: Zone of inhibition test (Procedure 2) on Staphylococcus aureus; type: cell-based; details: DSA plates, 37° C., every 24 hours over the test period (72 hours)
Method: as §1

[2] = DPPH test (Procedure 1), free radical / antioxidant activity; details: positive control at 10^-4M; percentage reduction of absorbance at 524 nm relative to the control after 4 hours
Method: Preferably, the material according to the present invention has a free radical activity, that is to say an antioxidant activity, of at least about 15% in the diphenylpicrylhydrazyl (DPPH) test, measured as percentage reduction in absorbance at 524 nm after 4 hours of a 0.5% w/v dispersion of the polysaccharide in 10^−4M DPPH, as described further hereinbelow in Procedure 1. Preferably the percentage reduction in absorbance in the DPPH test (after correction for any absorbance by the dye) is at least about 25%, more preferably at least about 50%, and most preferably at least about 75%.
The ability of the wound dressing materials to react with and remove oxygen containing free radicals is assessed by the DPPH test described in WO94/13333, the entire content of which is expressly incorporated herein by reference. […]
Briefly, the wound dressing material under test (2.5 mg; 5 mg; & 25 mg sample sizes) was suspended in 2.5 ml of 0.1M pH 7.0 phosphate buffer. […] The samples were assessed by measurement of their light absorbance at 524 nm over 6 hours in comparison with a control, particular attention being paid to the figure after 4 hours. The percentage reduction of absorbance relative to the control after 4 hours gives the DPPH test value, with a reproducibility generally of ±5%. […]

Structure (SMILES) | zone of inhibition [1] | zone of inhibition (Staphylococcus aureus) | DPPH test value [2]
O=[N+]([O-])[O-].[Ag+] [silver nitrate solution (0.5%), silver nitrate] | zones of inhibition were observed | zones of inhibition were observed | –
O=C1O[C@H]([C@@H](O)CO)C(O)=C1O [positive control, Ascorbic acid] | – | – | 80-90%
